The supplement of paper PMC12669032

How the values were obtained:
Assay in all cases: growth AUC relative to DMSO control (fraction); higher = more growth (less inhibition)
Conditions in all cases: 24 h
Clostridium difficile = system: Clostridium difficile
Protocol: (§1)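 Validation screen: 11 independently purchased pesticides tested on 8 gut bacterial strains at 2.5–320 µM in mGAM, anaerobic, 37 °C, 24 h. Growth AUC normalised to DMSO controls, mean of 3 independent experiments.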

Eubacterium rectale = system: Eubacterium rectale
Protocol: as §1

Escherichia coli IAI1 = system: Escherichia coli IAI1
Protocol: as §1

Bacteroides uniformis = system: Bacteroides uniformis
Protocol: as §1

Lactobacillus gasseri = system: Lactobacillus gasseri
Protocol: as §1

Streptococcus salivarius = system: Streptococcus salivarius
Protocol: as §1

[1] = system: Parabacteroides distasonis
Protocol: as §1

Roseburia intestinalis = system: Roseburia intestinalis
Protocol: as §1

Cc1cc(C(C#N)c2ccc(Cl)cc2)c(Cl)cc1NC(=O)c1cc(I)cc(I)c1O (stereo not given) [CLOSANTEL]
growth AUC
Conditions	Bacteroides uniformis	Clostridium difficile	Escherichia coli IAI1	Eubacterium rectale	Lactobacillus gasseri	Roseburia intestinalis	Streptococcus salivarius	[1]
2.5 µM	1	0.0348	1.07	0.453	0.809	0.246	1.05	0.245
5 µM	0.973	0.0106	1.04	0.242	0.827	0.149	1.04	0.00935
10 µM	0.616	0.0157	1.03	0.0185	0.866	0.0586	1.09	0.00581
20 µM	0.609	0.0183	0.929	0.0129	0.848	0.0162	1.06	0.00682
40 µM	0.573	0.00635	0.904	0.00913	0.815	0.0268	1.04	0.0119
80 µM	0.575	0.0171	0.886	0.0119	0.836	0.0158	1.13	0.0133
160 µM	0.575	0.072	0.861	0.0223	0.81	0.0258	1.06	0.0101

CCC(C)[C@H]1O[C@]2(C=C[C@@H]1C)C[C@@H]1C[C@@H](C/C=C(\C)[C@@H](O[C@H]3C[C@H](OC)[C@@H](O[C@H]4C[C@H](OC)[C@@H](O)[C@H](C)O4)[C@H](C)O3)[C@@H](C)/C=C/C=C3\CO[C@@H]4[C@H](O)C(C)=C[C@@H](C(=O)O1)[C@]34O)O2.CO[C@H]1C[C@H](O[C@H]2[C@H](C)O[C@@H](O[C@@H]3/C(C)=C/C[C@@H]4C[C@@H](C[C@]5(C=C[C@H](C)[C@@H](C(C)C)O5)O4)OC(=O)[C@@H]4C=C(C)[C@@H](O)[C@H]5OC/C(=C\C=C\[C@@H]3C)[C@]54O)C[C@@H]2OC)O[C@@H](C)[C@@H]1O (stereo not given in full) [ABAMECTIN]
growth AUC
Conditions	Bacteroides uniformis	Clostridium difficile	Escherichia coli IAI1	Eubacterium rectale	Lactobacillus gasseri	Roseburia intestinalis	Streptococcus salivarius	[1]
2.5 µM	0.975	1.02	1.01	1.29	1.04	0.865	1.04	0.985
5 µM	0.996	0.979	0.978	1.17	1.07	0.871	0.973	0.918
10 µM	0.968	0.968	1.01	1.05	1.03	0.564	0.983	0.409
20 µM	0.996	0.986	0.957	0.881	0.983	0.21	0.876	0.057
40 µM	0.974	0.966	1.01	0.774	0.952	0.121	0.894	0.0234
80 µM	0.971	0.887	1	0.892	1.02	0.102	0.887	0.0192
160 µM	0.99	0.885	0.974	0.999	0.889	0.107	1.01	0.0484

CCCC1COC(Cn2cncn2)(c2ccc(Cl)cc2Cl)O1 (stereo not given) [PROPICONAZOLE]
growth AUC
Conditions	Bacteroides uniformis	Clostridium difficile	Escherichia coli IAI1	Eubacterium rectale	Lactobacillus gasseri	Roseburia intestinalis	Streptococcus salivarius	[1]
2.5 µM	1.03	0.982	1	1.19	1.03	0.971	1.1	1.12
5 µM	0.99	1.01	0.993	0.951	0.968	0.925	1.04	1
10 µM	1.02	0.967	0.971	0.703	1.02	1.01	1.06	0.988
20 µM	0.97	1.03	0.981	0.475	0.96	0.894	0.994	0.874
40 µM	0.951	0.981	0.999	0.344	0.972	0.947	1.04	0.488
80 µM	0.915	0.979	0.975	0.0163	0.94	0.716	1.06	0.284
160 µM	0.831	0.885	0.996	0.0214	0.851	0.202	1.03	0.0246
320 µM	0.618	0.385	0.994	0.0204	0.832	0.0162	0.932	0.0187

O=[N+]([O-])c1cc(C(F)(F)F)c(Cl)c([N+](=O)[O-])c1Nc1ncc(C(F)(F)F)cc1Cl [FLUAZINAM]
growth AUC
Conditions	Bacteroides uniformis	Clostridium difficile	Escherichia coli IAI1	Eubacterium rectale	Lactobacillus gasseri	Roseburia intestinalis	Streptococcus salivarius	[1]
2.5 µM	1.04	0.99	1.03	1.04	1.01	1.01	1.04	0.966
5 µM	1.02	0.995	1.01	0.887	0.968	1.08	1	0.859
10 µM	0.996	0.969	1.03	0.692	0.921	0.959	0.984	0.411
20 µM	0.807	0.909	0.912	0.227	0.844	0.879	0.815	0.0128
40 µM	0.593	0.0127	0.934	0.0306	0.847	0.584	0.992	0.0301

CCCCOC(=O)[C@@H](C)Oc1ccc(Oc2ccc(C#N)cc2F)cc1 [CYHALOFOP-BUTYL]
growth AUC
Conditions	Bacteroides uniformis	Clostridium difficile	Escherichia coli IAI1	Eubacterium rectale	Lactobacillus gasseri	Roseburia intestinalis	Streptococcus salivarius	[1]
2.5 µM	1.01	1.02	1.01	1.11	1.05	1.01	1.07	1.04
5 µM	0.969	0.984	0.98	1.04	0.986	0.964	1.02	0.93
10 µM	0.994	0.98	0.975	1.05	0.986	1.02	0.957	0.859
20 µM	0.937	1.03	0.972	0.967	0.981	0.891	0.972	0.717
40 µM	0.971	1.02	0.996	1.02	0.956	0.981	0.981	0.643
80 µM	0.99	0.992	0.979	1.13	1.01	0.976	0.999	0.684
160 µM	0.968	1.01	0.992	1.18	0.969	0.998	1.01	0.588
320 µM	0.925	0.977	1	1.28	0.975	0.918	1.1	0.437
